Values joined by “and” are separate entries in the source; they are usually repeats but may differ in a detail not shown here. Equal entries are not always repeated. Where two headings read alike, the source gives them in different places.
How the values were obtained:
[1] = test system: short-term cultures derived from tumors; test: Ex vivo rapamycin response of short-term tumor cultures (S6 immunoblot); assay type: cell-based, human; details: 0.3 and 3.0 nM, 8 h; rapamycin-sensitive (patients 1 and 3) and rapamycin-resistant (patients 2 and 12) samples
Text: The lower and upper end of the box corresponds to the 25th and 75th percentile, respectively. The whiskers extend to the 95% range. The Wilcoxon nonparametric group comparison test was used to calculate p-values for the differences between different patient groups. […] The horizontal line inside the box indicates the median value. The lower and upper border of the box corresponds to the 25th and 75th percentile, respectively. The whiskers extend to the 95% range.

[2] = cited from earlier work; for mucosal HERPES SIMPLEX infections, patients: phase III trial, with cyclosporine and corticosteroids, ref MacDonald et al, 2001
[3] = human, in vivo, cited from earlier work
[4] = test system: PTEN-deficient glioblastoma; test: Ki-67 labeling index of tumor tissue (S2 versus S1); assay type: in vivo, human; details: for Ki-67 Decrease: about 1 wk pre-operative, S2 vs S1, individual patients
Text: To quantify mTOR activity in matched S1 and S2 samples, we measured phosphorylation of S6 ribosomal protein by immunohistochemistry using two distinct phosphosite antibodies directed against Ser235/236 or Ser240/244. […] Immunohistochemistry (IHC) scoring is described in detail in Text S1.
The following antibodies were used for IHC: anti-PTEN (6H2.1, #ABM-2052, Cascade BioScience; 1:400 dilution), anti-Ki-67 (MIB-1, M7240, DakoCytomation; 1:100 Dilution), anti-phospho Ser235/236 S6 (91B2, #4857, Cell Signaling; 1:50 dilution), anti phospho Ser240/244 S6 (#2215, Cell Signaling; 1:200 dilution), anti-phospho-PRAS 40 (#44–1100G, Biosource; 1:200 dilution), anti-phospho Ser473 Akt (736E11, #3787, Cell Signaling; 1:50 dilution), anti-phospho Thr389 p70 S6 Kinase (#9205, Cell Signaling; 1:100 Dilution), and anti phospho Ser1108 eIF4G at 1:400 (#2441, Cell Signaling; 1:400 dilution). Antigen retrieval was performed using 0.01 M citrate buffer, pH 6.0 for 30 min in an oven and peroxidase activity was quenched with 3% hydrogen peroxide in water. Primary antibodies were diluted in PBS /2% bovine serum albumin/2% normal horse serum (for anti-PTEN) or TBS/0.1% Tween/5% normal goat serum (for phosphosite-specific antibodies) and applied overnight at 4 °C. […]
Scoring of immunohistochemical stains. […] Digital scores for PTEN, phospho-S6, and phospho-PRAS40 are based on absolute staining intensity of tumor cells as quantified following false-color conversion. PTEN, phospho-S6, phospho-PRAS40, and Ki-67 were scored in representative and matching areas of consecutive tissue sections (Suppl. Fig. 1), excluding areas with large vessels and/or prominent reactive changes (e.g., reactive astrogliosis or lymphocytic infiltration). […] Quantitative analysis was done using HSI color algorithm based on hue, saturation and intensity. Saturations of the separated cell in the images were quantified in the red-brown hue range to exclude the negative staining area with hematoxylin nuclear staining. To compare the staining intensity of all slides, mean saturation of total cells on each image was quantified and calculated. For Ki-67 staining scoring, separated cells were quantified with red brown hue range (positive staining) and total hue range (all cells) after cell border separation and Ki-67 labeling index was calculated based on these numbers. For p-PRAS40 scoring, mean saturation of the positive staining tumor cells was quantified in the red-brown hue range, followed by multiplying the positive cell ratio in the same image to evaluate both staining intensity and staining distribution. pS473 Akt was quantified on a scale of 0-2; 0^+ = no staining, 1^+ = mild intensity cytoplasmic staining, and 2^+ = strong cytoplasmic staining. […]

[5] = test system: cytochrome P450 isoenzyme 3A4; details: cited from earlier work

In the case of `CO[C@H]1C[C@@H]2CC[C@@H](C)[C@@](O)(O2)C(=O)C(=O)N2CCCC[C@H]2C(=O)O[C@H]([C@H](C)C[C@@H]2CC[C@@H](O)[C@H](OC)C2)CC(=O)[C@H](C)/C=C(\C)[C@@H](O)[C@@H](OC)C(=O)[C@H](C)C[C@H](C)/C=C/C=C/C=C/1C` [Rapamycin], the “S6 phosphorylation ex vivo” value [1] is listed as “inhibited equally”, the “ANEMIA, patients” value ([2]; human, in vivo) is listed as 27-37% and the ARTHRALGIA ([2]; human, in vivo) is listed as 25-31%. For the same compound, the CONSTIPATION ([2]; human, in vivo) was 28-36%, the DIARRHEA ([2]; human, in vivo) was 25-42% and the DYSPEPSIA ([2]; human, in vivo) was 17-25%. For the same compound, the “DYSPNEA, patients” value ([2]; human, in vivo) was 22-30%, the “EPISTAXIS, patients” value ([2]; human, in vivo) was 9% and the “HEADACHE, patients” value ([2]; human, in vivo) was 23-34%. The “HYPERTENSION, patients” value ([2]; human, in vivo) was 43-45%, the “HYPOKALEMIA, patients” value ([2]; human, in vivo) was 11-21% and the “HYPOPHOSPHATEMIA, patients” value ([2]; human, in vivo) was 15-23%. For the same compound, the Hyperlipidemia ([2]; human, in vivo) was 38-57%, the NAUSEA ([2]; human, in vivo) was 25-36% and the “Normalization of platelet counts after discontinuation” value ([2]; human, in vivo) was ≤ 2 weeks. The “Peripheral EDEMA, patients” value ([2]; human, in vivo) was 54-64%, the “Posttransplant lymphoproliferative disease (PTLD)” value ([2]; human, in vivo) was 0.8% and the “THROMBOCYTOPENIA, patients” value ([2]; human, in vivo) was 13-30%. For the same compound, the VOMITING ([2]; human, in vivo) was 19-25%, the “arthralgia, patients” value ([2]; human, in vivo) was 23% and the hypercholesterolemia ([2]; human, in vivo) was 38-46%. The “insomnia, patients” value ([2]; human, in vivo) was 13-22%, the “patients with triglyceride levels exceeding 5 mmol/L” value ([2]; human, in vivo) was 75% and the “total cholesterol mean peak” value ([2]; human, in vivo) was 12 mmol/L. For the same compound, the “tremor, patients” value ([2]; human, in vivo) was 21-31%, the “mucosal HERPES SIMPLEX infections, patients” value ([2]; sirolimus 2 mg/day) was 10% and the “mucosal HERPES SIMPLEX infections, patients” value ([2]; sirolimus 5 milligrams (mg)/day) was 19%. The Vdss ([3]; iv) was 1.1 to 1.3 L/kg, the half-life [3] was 40 to 60 h and the “Ki-67 Decrease” value ([4]; 2 mg oral daily) was “Yes and No”. For the same compound, the “Ki-67 Decrease” value ([4]; 5 mg oral daily) was “No and Yes”, the “Ki-67 Decrease” value ([4]; 10 mg oral daily) was “Yes and No” and the “patients with nearly complete inhibition (dramatic reduction) of tumor cell proliferation” value ([4]; Ki-67 staining after about 1 wk of rapamycin) was “seven of 14 and 7/14”. The “cytochrome P450 substrate” value [5] was “substrate for the cytochrome P450 isoenzyme 3A4”.
